Results on 16 compounds are retold here after patent publication US6979740B2, “Process for preparation of ring-substituted 8-aminoquinoline analogs as antimalarial agents” (National Institute of Pharmaceutical Education and Research, priority 2003, dated 2005).

In series [1] the test system is P. yoelii nigeriensis (multidrug resistant strain). Nature of the series: Blood schizontocidal activity against chloroquine and mefloquine drug-resistant P. yoelii nigeriensis in mice. The format is in vivo. Conditions: oral, 4 doses, listed as R=H, R1=H, R2=C(CH3)3, R3=H. On the procedure: (§1) Blood schizontocidal activity evaluation of potential antimalarial compounds against Plasmodium berghei (sensitive strain) and P. yoelii nigeriensis (resistant strain) infection in mice.
(§2) Test Procedure: On day ‘0’, groups of 6 mice each were inoculated, intraperitoneally, with 1×10^7 infected-erythrocytes, from a donor mouse. Four hours later, mice were administered test compounds/chloroquine primaquine/vehicle, orally. A total of 4 doses were given on days D‘0’, D+1, D+2, and D+3. The tail blood smears were made on day D+4 and D+7, stained with Geimsa, and examined microscopically. […] The results of blood-schizontocidal activities for the synthesized compounds are given below in Table 1.

Another series has as its system P. falciparum. Nature of the series: In vitro antimalarial activity against P. falciparum. The format is cell-based. On the procedure: Protocol: Different drug dilutions [test compounds and chloroquine (positive control)] were prepared in complete RPMI (medium RPMI 1640+10% AB^+ human serum; CRPMI). Fifty μL of each dilution was transferred to the respective well of a microtiter plate in triplicates. Parasitized erythrocytes (PE; mainly rings; 4% parasitaemia; 5% hematokrit) were added to each well. Volume in each well was made up to 200 μL with CRPMI. The plates were incubated at 37° C. in a candle jar. After 24-48 h of incubation, thin smears from each well were made and stained with Giemsa. The number of PE/10,000 cells was counted. […] Using non-linear regression analysis, the IC50 of the test compounds was then calculated.

Another series has as its system Mastomys coucha. Nature of the series: In vivo methemoglobin (MetHb) toxicity in Mastomys coucha. The settings on record: for (%) Methemoglobin (MetHb) Increase: Mastomys coucha, blood 4 h after administration. On the procedure: The protocol used is as follows: In vivo MetHb-inducing properties estimation was carried out in Mastomys coucha, a rapid rodent animal model using protocols reported earlier (Srivastava, P., Singh, S., Jain, G. K., Puri, S. K., Pandey, V. C. Ecotox. Environ. Safety. 2000, 45, 236-239). Briefly; six animals per group of both sexes, 2-3 months old and body weight between 40-50 g were used for the present investigation. Drug was administered intraperitoneally (ip) or orally at various dosage for single day/three consecutive days. Primaquine is used as the standard drug for the test. It is known that primaquine is readily absorbed from the gastro-intestinal tract and peak plasma concentration reaches within 3 h and falls within an apparent elimination half time of 6 h. Keeping the above pharmacokinetic profile in mind, the blood samples were collected after 4 h of drug administration and % increase in MetHb was calculated.

The subject of a further series is Swiss mice. The series is described as follows: Acute toxicity studies in Swiss mice. The format is in vivo. On the procedure:
A group of ten mice with equal ratio of male and female were subjected to a single dose of 5, 50, 150 and 450 mg/kg.

Series [2] deals with Plasmodium berghei (sensitive strain). Nature of the series: Blood schizontocidal activity against Plasmodium berghei infection in mice. Format: in vivo. The settings on record: P. berghei infected mice, oral, 4 doses D0 to D+3, suppressive = parasitaemia suppressed on D+4 and D+7, curative = cleared up to 28 days. On the procedure: as §1, §2
The conditions of series [3]: cited from earlier work.

In brackets after ≈: the same amount, converted by molar mass. Entries after “also recorded” stand apart in the source; their conditions may differ. Some results are limits rather than exact numbers.

Regarding `COc1cc(NC(C)CCCN)c2nc(C(C)(C)C)ccc2c1` (stereo not shown) [Example 43, N^8-(4-Amino-1-methylbutyl)-2-tert-butyl-6-methoxy-8-quinolinamine], the “Biological activity at (mg/kg/days × 4)” value is listed as “Curative at 100 mg/kg; also recorded: Curative at 50 mg/kg; also recorded: Curative at 25 mg/kg; also recorded: Suppressive at 10 mg/kg” in series [1]; “curative at a dose of 10 mg/kg” in series [2] (listed as 1); “Curative at 10 mg/kg” in series [2] (listed as R=H, R1=H, R2=C(CH3)3, R3=H). Also, the IC50 in the series on P. falciparum (Plasmodium falciparum, Erythrocyte, read-out: P. falciparum (IC50)) is 0.0391 µg/mL (≈ 0.124 µM). For the same compound, the “(%) Methemoglobin (MetHb) Increase” value with Mastomys coucha (15 mg/kg/day x 4 days (ip)), in the series with Mastomys coucha (15 mg/kg/day x 4 days (oral)), with Mastomys coucha (50 mg/kg (single dose) (ip)) and in the series with Mastomys coucha (50 mg/kg (single dose) (oral)) was 0% throughout. Besides, in the series with Mastomys coucha (in vivo), the “methemoglobin (MetHb) toxicity (result in words)” value is on record as “completely devoid of this toxic manifestation in vivo”. For the same compound, the “acute toxicity (result in words)” value in the series on Swiss mice (single dose) is “completely safe at 50 mg/kg”. Moreover, the “% Mortality Female” value in the series on Swiss mice (single dose 5 mg/kg), in the series with Swiss mice (single dose 50 mg/kg), in the series on Swiss mice (single dose 150 mg/kg) and with Swiss mice (single dose 450 mg/kg) was 0% in each case. Besides, the “% Mortality Male” value in the series on Swiss mice (single dose 5 mg/kg), in the series with Swiss mice (single dose 50 mg/kg), in the series with Swiss mice (single dose 150 mg/kg) and in the series on Swiss mice (single dose 450 mg/kg) was 0% throughout. Besides, the “% Mortality Total” value in the series with Swiss mice (single dose 5 mg/kg), in the series on Swiss mice (single dose 50 mg/kg), in the series on Swiss mice (single dose 150 mg/kg) and in the series on Swiss mice (single dose 450 mg/kg) was 0% each time.
Turning to `COc1cc(NC(C)CCCN)c2ncccc2c1C1CCCC1` (stereo not shown) [Example 44, N^8-(4-Amino-1-methylbutyl)-5-cyclopentyl-6-methoxy-8-quinolinamine], in series [2], the “Biological activity at (mg/kg/days × 4)” value was “Inactive at 100 mg/kg”.
Same read-out and setting: in the case of `COc1cc(NC(C)CCCN)c2nc(C34CC5CC(CC(C5)C3)C4)ccc2c1` (stereo not shown) [Example 45, N^8-[4-Amino-1-methylbutyl)-2-adamantyl-6-methoxy-8-quinolinamine] it was “Inactive at 100 mg/kg”.
Still for that read-out and setting: in the case of `COc1cc(NC(C)CCCN)c2ncccc2c1C(C)C` (stereo not shown) [Example 46, N^8-(4-Amino-1-methylbutyl)-5-isopropyl-6-methoxy-8-quinolinamine] it was “Inactive at 100 mg/kg”; in that of `COc1cc(NC(C)CCCN)c2ncccc2c1C1CCCCC1` (stereo not shown) [Example 47, N^8-(4-Amino-1-methylbutyl)-5-cyclohexyl-6-methoxy-8-quinolinamine], “Inactive at 100 mg/kg”.
Regarding `COc1cc(NC(C)CCCN)c2nc(C3CCCC3)ccc2c1C1CCCC1` (stereo not shown) [Example 48, N^8-(4-Amino-1-methylbutyl)-2,5-dicyclopentyl-6-methoxy-8-quinolinamine], the “Biological activity at (mg/kg/days × 4)” value in series [2] is recorded as “Inactive at 100 mg/kg”.
Same read-out and setting: in the case of `COc1cc(NC(C)CCCN)c2nc(C(C)C)ccc2c1C(C)C` (stereo not shown) [Example 49, N^8-(4-Amino-1-methylbutyl)-2,5-diisopropyl-6-methoxy-8-quinolinamine] it was “Inactive at 100 mg/kg”.
As for `COc1cc(NC(C)CCCN)c2nc(C3CCCCC3)ccc2c1C1CCCCC1` (stereo not shown) [Example 50, N^8-(4-Amino-1-methylbutyl)-2,5-dicyclohexyl-6-methoxy-8-quinolinamine], in series [2], the “Biological activity at (mg/kg/days × 4)” value is given as “Inactive at 100 mg/kg”.
On the same count and under the same terms, in the case of `COc1cc(NC(C)CCCN)c2nc(C(C)(C)C)ccc2c1OC` (stereo not shown) [Example 51, N^8-(4-Amino-1-methylbutyl)-2-tert-butyl-5,6-dimethoxy-8-quinolinamine] it was “Inactive at 100 mg/kg”; in that of `CCCCCOc1c(OC)cc(NC(C)CCCN)c2nc(C(C)(C)C)cc(CC)c12` (stereo not shown) [Example 54, N^8-(4-Amino-1-methylbutyl)-2-tert-butyl-4-ethyl-6-methoxy-5-pentoxy-8-quinolin-amine], “Curative at 100 mg/kg”; in that of `CCCCCCCCOc1c(OC)cc(NC(C)CCCN)c2nc(C(C)(C)C)cc(CC)c12` (stereo not shown) [Example 55, N^8-(4-Amino-1-methylbutyl)-2-tert-butyl-4-ethyl-6-methoxy-5-octoxy-8-quinolin-amine], “Curative at 100 mg/kg”.
With `COc1cc(NCCC(C)CN)c2nc(C(C)(C)C)cc(C)c2c1OC` (stereo not shown) [Example 56, N^8-(4-Amino-3-methylbutyl)-2-tert-butyl-5,6-methoxy-4-methyl-8-quinolinamine], the “Biological activity at (mg/kg/days × 4)” value in series [2] is on record as “Curative at 100 mg/kg”.
The same measure, in the same setting: in the case of `COc1cc(NC(C)CCCNC(=O)[C@@H](N)CCCN)c2nc(C(C)(C)C)ccc2c1` (stereo partly drawn) [Example 61, N^1-[4-(2-tert-Butyl-6-methoxy-8-quinolylamino)pentyl]-(2S)-2,5-diaminopentamide] it was “Curative at 100 mg/kg”.
Turning to `COc1cc(NC(C)CCCNC(=O)[C@@H](N)CCCCN)c2nc(C(C)(C)C)ccc2c1` (stereo partly drawn) [Example 63, N^1-[4-(2-tert-Butyl-6-methoxy-8-quinolylamino)pentyl]-(2S)-2-6-diaminohexanamide], the “Biological activity at (mg/kg/days × 4)” value in series [2] (listed as 17) was “suppressive activity at 10 mg/kg”; in series [2] (listed as R=H, R1=H, R2=C(CH3)3, R3=S-(Lys)), “Suppressive at 10 mg/kg”.
In the case of `COc1cc(NC(C)CCCNC(=O)[C@H](C)N)c2nc(C(C)(C)C)ccc2c1` (stereo partly drawn) [Example 64, N^1-[4-(2-tert-Butyl-6-methoxy-8-quinolylamino)pentyl]-(2S)-2-aminopropanamide], the “Biological activity at (mg/kg/days × 4)” value in series [2] (listed as 18) is “suppressive activity at 10 mg/kg”; in series [2] (listed as R=H, R1=H, R2=C(CH3)3, R3=S-(Ala)), “Suppressive at 10 mg/kg”.
In the case of `COc1cc(NC(C)CCCN)c2ncccc2c1` (stereo not shown) [Primaquine, N^8-(4-amino-1-methylbutyl)-6-methoxy-8-quinolinamine, reference compound], the “P. falciparum (IC50)” value with P. falciparum (parasitized erythrocytes, 24-48 h incubation) is reported as “Not active”. In addition, the “(%) Methemoglobin (MetHb) Increase” value with Mastomys coucha (15 mg/kg/day x 4 days (ip)) stood at 3.38%; in the series with Mastomys coucha (15 mg/kg/day x 4 days (oral)) it was 3.57%; in the series on Mastomys coucha (50 mg/kg (single dose) (ip)), 3.38%; in the series on Mastomys coucha (50 mg/kg (single dose) (oral)) it was 2.58%. In addition, the “time to peak plasma concentration” value in series [3] (absorbed from the gastro-intestinal tract, known property) was no more than 3 h. The half-life in series [3] (known property of the drug) is 4 to 6 h. In addition, in series [3] (known property), the “apparent elimination half time” value is 6 h.

The IC50 is the midpoint of a concentration-inhibition curve. A word on the half-life: it is how long it takes for the measured level to halve.
